# Measured values as given in US10072065B2, “Peptide-mediated delivery of immunoglobulins across the blood-brain barrier” (Mayo Foundation for Medical Education and Research, priority 2015, dated 2018).
# Test system: blood-brain barrier (BBB)
# Assay: Transportation of Evan's Blue (EB) across the BBB after IV Apo-I or peptide-cetuximab complex
# Format: in vivo, mouse
# Details: ~40 μL 2% EB only, IV femoral vein, brain evaluated approximately 2 hours after dye (brain number 1)
# Experimental: To explore whether Apo-I transports an antibody across the BBB, the peptide or a peptide-cetuximab complex were first injected by IV followed by injection of Evan's Blue (EB; a routinely used small molecule blue dye with a molecular weight of 960.81) by IV into the femoral vein of a mouse. Cardiac perfusion was performed and the brains of the mice were removed and evaluated approximately 2 hours following injection of the dye. As a control, injection of EB only was used. The particulars of each administration are as follows: • 1) ˜40 μL 2% EB only was injected. • 2) 300 μg of Apo-I was injected first, then ˜40 μL 2% EB was injected. • 3) 600 μg of Apo-I was injected first, then ˜40 μL 2% EB was injected. • 4) 600 μg of Apo-I was mixed with 200 μg cetuximab prior to injection and then injected first, then ˜40 μL 2% EB was injected.
smiles,measurement,value
"Cc1cc(-c2ccc(/N=N/c3ccc4c(S(=O)(=O)[O-])cc(S(=O)(=O)[O-])c(N)c4c3O)c(C)c2)ccc1/N=N/c1ccc2c(S(=O)(=O)[O-])cc(S(=O)(=O)[O-])c(N)c2c1O.[Na+].[Na+].[Na+].[Na+] [EB, Evan's Blue]",EB reaching the brain (blue coloring of brain),cannot reach the brain
